Measurements taken from US20100179130A1, “USE OF PIPERINE AND DERIVATIVES THEREOF FOR THE THERAPY OF NEUROLOGICAL CONDITIONS” (SYNGIS Bioscience GmbH & Co. KG, priority 2007, published 2010).

Assays:
[1] = tested on: rat MCAO model; assay: Rat MCAO (filament) model for stroke, infarct volume by TTC staining
[2] = tested on: mouse SCI model; assay: Mouse spinal cord injury (SCI) model, Basso-Mouse-Score; type: in vivo; conditions: i.p. 10 mg/kg, then 20 mg/kg on two days, plus 1 mg/kg daily s.c. over 2 weeks; day 1-35
Experimental: Female mice at 2 months of age were anesthetized using inhalation anesthesia (1% Halothane/30% N20/70% O2). After laminectomy at the vertebral level Th8/9, the spinal cord was dorsally transected to ˜80% with fine iridectomy scissors leaving a ventral tissue bridge intact as previously described (Demjen et al. Nat Med 2004; 10: 389-395). The animals were treated postoperatively with gentamycin (i.p., 1 mg/kg bodyweight) once a day for 7 days. Bladders were emptied manually until restoration of autonomic bladder function. In the treatment experiment, C57BL/6 wild-type mice (n=20) received i.p. piperine during the operation (10 mg/kg bodyweight) and on the two following days (20 mg/kg bodyweight, each time. Further, the mice received a daily dose of 1 mg/kg bodyweight by continuous s.c. application over 2 weeks via an osmotic minipump (Alzet). Control group (sham, n=20) was treated accordingly but received only vehicle (20% Solutol-HS15). Piperine was solved in 20% Solutol-HS15 as described in Example 7. All animal experiments were approved by the ethical authorities. As a measurement for the outcome the Basso-Mouse-Score (BMS) (Basso et al. J Neurotrauma 2006; 23: 635-659) was determined at day 1, 7, 14, 21, 28, and 35 after operation. The BMS scores a value between 0 (no movement of the hind limbs) to 9 (healthy mouse).

[3] = tested on: neural stem cells; assay: In vitro differentiation assay on adult neural stem cells (beta-III-tubulin promoter firefly/Renilla dual luciferase reporter); type: cell-based, rat
Text: The neuroregenerative effect of the compounds according to the present invention can be assayed in vitro by measuring their stimulation of the differentiation of neural stem cells. Therefore, adult neural stem cells have to be isolated and subsequently cultivated in a suitable culture medium. After several passages in vitro the stem cells have to be co-transfected with a DNA construct coding for two discriminable reporter proteins one of them under the control of a constitutive promoter and the other under the control of a beta-III-tubulin promoter. The beta-III-tubulin promoter is induced during the process of neural stem cell differentiation; therefore the reporter protein under the control of this promoter serves as a marker for the stem cell differentiation in such an in vitro dual reporter assay (Schneider et al., J Clin Investigation 2005; 115:2083-2098). The person skilled in the art knows several suitable constitutive promoters such as the SV40-promoter, the TK-promoter, or the CMV-promoter. As discriminable reporter proteins for such a dual reporter assay one can use discriminable luciferases such as firefly luciferase and Renilla luciferase. The transfected cells have to be incubated with the test compound and with a positive and negative controls for normalization and background correction. As a positive control compound one can use retinoic acid (Guan et al., Cell Tissue Res. 2001; 305:171-176; Jacobs et al., Proc. Natl. Acad. Sci. USA 2006; 103:3902-3907), a suitable negative control is the sham treatment of the cells. The neroregenerative activity of the test compound is determined as the ratio of the signal of the beta-III-tubulin promoter controlled reporter versus the signal of the constitutively expressed reporter and is expressed as fold from the control. This assay is suitable to assess the neuroregenerative activity of piperine and derivatives thereof, but also can be used to screen for other potential neuroregenerative compounds. Preferably, such a screening can be used to test compounds which are already known to be suitable as a medicament in terms of its toxicology, bioavailability, solubility, stability etc.
Neural stem cells were isolated from the subventricular zone of 4 week-old male Wistar rats as described (Maurer et al, Proteome Sci. 2003; 1:4). Cells were cultivated in Neurobasal medium (Invitrogen) supplemented with B27 (Invitrogen), 2 mM L-glutamine, 100 units/ml penicillin, 100 units/ml streptomycin, 20 ng/ml […] (EGF), 20 ng/ml fibroblast growth factor-2 (FGF-2), and 2 μg/ml heparin. Once a week the neural stem cells were passaged and experiments were performed after 4 weeks in vitro. For DNA transfection, the cells were dissociated and plated on poly-L-ornithin/laminin-coated 96-well plates at a density of 50.000 cells/well. Cotransfection with the pGL3-p-βIII-tubulin vector (100 ng/well) and the pRL SV40 vector (100 ng/well) was carried out according to the FuGene6 Transfection protocol (Roche). The pRL SV40 vector (Promega) served as an internal control vector.
To amplify the class III β-tubulin gene promoter (fragment −450-+54), rat genomic DNA was used as a template for PCR (Dennis et al., Gene 2002; 294:269-277). The amplified fragment was inserted into the Mlu I/Xho I site of the pGL3-Basic firefly luciferase reporter vector (Promega) to generate the pGL3-p-βIII-tubulin experimental vector.
After overnight incubation, the plate was decanted and given in 8-fold replicates fresh medium containing piperine (Sigma) or vehicle. As a positive control for in vitro differentiation, stem cells were treated by adding 1 μM retinoic acid (Sigma) to the medium missing the mitogens.
After 48 hrs, the cells were harvested to prepare the cellular extracts for luciferase assay following the directions of the manufacturer (Promega). […]

O=C(/C=C/C=C/c1ccc2c(c1)OCO2)N1CCCCC1 [Piperine, (E,E)-1-[5-(1,3-benzodioxol-5-yl)-1-oxo-2,4-pentadienyl]piperidine]
total edema-corrected infarct size ([1]; 10 mg/kg i.v. 30 min after onset of occlusion, 24 h, mean ± SEM, n=30, p=0.031 vs vehicle): 151±17 mm^3 | edema-corrected infarct volume, subcortical areas ([1]; 10 mg/kg i.v. 30 min after onset of occlusion, 24 h, mean ± SEM, not statistically significant): 78±6 mm^3 | edema-corrected infarct volume, cortex ([1]; 10 mg/kg i.v. 30 min after onset of occlusion, 24 h, mean ± SEM, p=0.018 vs vehicle): 73±14 mm^3 | tolerability of the treatment ([1]; 10 mg/kg i.v., rat): well tolerated | outcome of experimental SCI (Basso-Mouse-Score) [2]: clearly improved the outcome | differentiation of neural stem cells to neurons, dose dependence ([3]; 0.2 μM up to 25, 50 or 100 μM, compared with sham and 1 μM retinoic acid): significantly stimulates | fold induction at 1 µM ([3]; Rattus norvegicus, Neural stem cell, 1 μM final compound concentration, in comparison to sham treatment, read-out: Stimulation factor for differentiation of neural stem cells): 2.1
